Patent US12447170B2, “Use of maribavir in treatment regimens” (priority 2021, dated 2025)

Tests used:
[1] = Drug interaction summary: effect of co-administered drugs on maribavir pharmacokinetics (Tables 1-A, 1-B); conditions: concomitant drug with maribavir; observed and predicted
Description: Drug interaction studies were summarized based on Example 2 and other available data (e.g., in vitro and clinical data).

[2] = Drug interaction summary: effect of maribavir 400 mg twice daily on co-administered drug pharmacokinetics (Tables 1-A, 1-C); assay type: in vivo, human; conditions: for Effect on Concentration (of concomitant drug): concomitant drug with maribavir, observed and predicted; for Geometric Mean Ratio of co-administered drug PK with/without maribavir (No Effect = 1.00), AUC / Geometric Mean Ratio of co-administered drug PK with/without maribavir (No Effect = 1.00), Cmax: digoxin 0.5 mg single dose
[3] = design: species or system human; conditions: in vivo
Description: Accumulated data have shown that maribavir is metabolized primarily in the liver, and renal clearance is a minor route (representing less than 5 percent). VP 44469 (N-dealkylated Maribavir) was the principal metabolite of maribavir in both urine and feces. In plasma, unchanged maribavir and VP 44469 represented approximately 69% and 9.8% of total radioactivity, respectively. The hepatic metabolism of maribavir was primarily driven by cytochrome P450s. CYP3A4 and CYP1A2 were responsible for 70 to 85% and 15 to 30% of the CYP-driven pathways, respectively. Glucuronidation accounted for less than 20% of metabolism.
Distribution models evaluated included a full PBPK model and a minimal PBPK model, both of which consider liver and intestinal metabolism. Mass balance data from the [^14C] ADME study indicated a fraction absorbed of 0.83 or greater following oral administration of 400 mg dose of maribavir. Absorption models evaluated included a simple first-order absorption model and a more mechanistic “Advanced Dissolution Absorption and Metabolism” (ADAM) model.

[4] = in the presence of 400 mg twice daily maribavir, tacrolimus stable dose twice daily

SMILES	Effect on Concentration (of maribavir) [1]	Effect on Concentration (of concomitant drug) [2]	other results
NC(=O)N1c2ccccc2C=Cc2ccccc21 [Carbamazepine, reference compound]	↓Maribavir	–	–
CO[C@H]1C[C@@H]2CC[C@@H](C)[C@@](O)(O2)C(=O)C(=O)N2CCCC[C@H]2C(=O)O[C@H]([C@H](C)C[C@@H]2CC[C@@H](OCCO)[C@H](OC)C2)CC(=O)[C@H](C)/C=C(\C)[C@@H](O)[C@@H](OC)C(=O)[C@H](C)C[C@H](C)/C=C/C=C/C=C/1C [Everolimus]	–	↑Everolimus	–
CCC1(c2ccccc2)C(=O)NC(=O)NC1=O [Phenobarbital, reference compound]	↓Maribavir	–	–
O=C1NC(=O)C(c2ccccc2)(c2ccccc2)N1 [Phenytoin, reference compound]	↓Maribavir	–	–
CO[C@H]1/C=C/O[C@@]2(C)Oc3c(C)c(O)c4c(c3C2=O)C2=NC3(CCN(CC(C)C)CC3)NC2=C(NC(=O)/C(C)=C\C=C\[C@H](C)[C@H](O)[C@@H](C)[C@@H](O)[C@@H](C)[C@H](OC(C)=O)[C@@H]1C)C4=O [Rifabutin, reference compound]	↓Maribavir	–	–
CO[C@H]1/C=C/O[C@@]2(C)Oc3c(C)c(O)c4c(O)c(c(/C=N/N5CCN(C)CC5)c(O)c4c3C2=O)NC(=O)/C(C)=C\C=C\[C@H](C)[C@H](O)[C@@H](C)[C@@H](O)[C@@H](C)[C@H](OC(C)=O)[C@@H]1C [Rifampin, reference compound]	↓Maribavir	–	–
CO[C@H]1C[C@@H]2CC[C@@H](C)[C@@](O)(O2)C(=O)C(=O)N2CCCC[C@H]2C(=O)O[C@H]([C@H](C)C[C@@H]2CC[C@@H](O)[C@H](OC)C2)CC(=O)[C@H](C)/C=C(\C)[C@@H](O)[C@@H](OC)C(=O)[C@H](C)C[C@H](C)/C=C/C=C/C=C/1C [Sirolimus]	–	↑Sirolimus	–
C=CC[C@@H]1/C=C(\C)C[C@H](C)C[C@H](OC)[C@H]2O[C@@](O)(C(=O)C(=O)N3CCCC[C@H]3C(=O)O[C@H](/C(C)=C/[C@@H]3CC[C@@H](O)[C@H](OC)C3)[C@H](C)[C@@H](O)CC1=O)[C@H](C)C[C@@H]2OC [Tacrolimus]	–	↑Tacrolimus	increase of tacrolimus exposure by maribavir ([2]; co-administration with maribavir): 51%; Geometric Mean Ratio of co-administered drug PK with/without maribavir (No Effect = 1.00), Ctrough [2, 4]: 1.57; Geometric Mean Ratio of co-administered drug PK with/without maribavir (No Effect = 1.00), AUC [2, 4]: 1.51; Geometric Mean Ratio of co-administered drug PK with/without maribavir (No Effect = 1.00), Cmax [2, 4]: 1.38
Nc1nc2cc(Cl)c(Cl)cc2n1[C@H]1O[C@@H](CO)[C@H](O)[C@@H]1O [VP 44469, N-dealkylated Maribavir]	–	–	share of total radioactivity in plasma [3]: ~9.8%
C[C@H]1O[C@@H](O[C@H]2[C@@H](O)C[C@H](O[C@H]3[C@@H](O)C[C@H](O[C@H]4CC[C@@]5(C)[C@H](CC[C@@H]6[C@@H]5C[C@@H](O)[C@]5(C)[C@@H](C7=CC(=O)OC7)CC[C@]65O)C4)O[C@@H]3C)O[C@@H]2C)C[C@H](O)[C@@H]1O [digoxin]	–	↑digoxin	Geometric Mean Ratio of co-administered drug PK with/without maribavir (No Effect = 1.00), AUC [2, 4]: 1.21; Geometric Mean Ratio of co-administered drug PK with/without maribavir (No Effect = 1.00), Cmax [2, 4]: 1.25
